Data published in patent US20100099561A1, “HETEROBICYCLIC ALKYLTHIO-BRIDGED ISOXAZOLINES” (E.I. DU PONT DE NEMOURS AND COMPANY, priority 2008, published 2010).

Key:
Type in all cases: in vivo
[1] = test system: giant foxtail (Setaria faberi); test: Test A preemergence, giant foxtail; settings: 0 to 100 scale (0 no effect, 100 complete control)
Summary of the method: (§1)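 Pre: directed soil spray after sowing in loam/sand. Post: seedlings at 1–2 leaf stage, 2–10 cm. Vehicle: non-phytotoxic solvent mix + surfactant. Greenhouse ~10 d; visual injury 0–100 vs untreated controls.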

[2] = test system: morningglory (Ipomoea spp.); test: Test A preemergence, morningglory; settings: 0 to 100 scale (0 no effect, 100 complete control)
Summary of the method: as §1

[3] = test system: velvetleaf (Abutilon theophrasti); test: Test A preemergence, velvetleaf; settings: 0 to 100 scale (0 no effect, 100 complete control)
Summary of the method: as §1

[4] = test system: wheat (Triticum aestivum); test: Test A preemergence, wheat; settings: 0 to 100 scale (0 no effect, 100 complete control)
Summary of the method: as §1

[5] = test system: barnyardgrass (Echinochloa crus-galli); test: Test A postemergence, barnyardgrass; settings: 0 to 100 scale (0 no effect, 100 complete control)
Summary of the method: as §1

[6] = test system: large crabgrass (Digitaria sanguinalis); test: Test A postemergence, large crabgrass; settings: 0 to 100 scale (0 no effect, 100 complete control)
Summary of the method: as §1

[7] = test system: blackgrass (Alopecurus myosuroides); test: Test B preemergence, blackgrass; settings: scale 0 to 100
Source text: (§2) Seeds of plant species selected from blackgrass (Alopecurus myosuroides), downy bromegrass (Bromus tectorum), green foxtail (Setaria viridis), Italian ryegrass (Lolium multiflorum), wheat (Triticum aestivum), wild oat (Avena fatua), catchweed bedstraw (Galium aparine), bermudagrass (Cynodon dactylon), Surinam grass (Brachiaria decumbens), cocklebur (Xanthium strumarium), corn (Zea mays), large crabgrass (Digitaria sanguinalis), woolly cupgrass (Eriochloa villosa), giant foxtail (Setaria faberii), goosegrass (Eleusine indica), johnsongrass (Sorghum halepense), kochia (Kochia scoparia), lambsquarters (Chenopodium album), morningglory (Ipomoea coccinea), nightshade (eastern black nightshade, Solanum ptycanthum), yellow nutsedge (Cyperus esculentus), pigweed (Amaranthus retroflexus), ragweed (common ragweed, Ambrosia elatior), soybean (Glycine max), sunflower (common oilseed sunflower, Helianthus annuus), Russian thistle (Salsola kali), and velvetleaf (Abutilon theophrasti) were planted into a blend of loam soil and sand and treated preemergence with test compounds formulated in a non-phytotoxic solvent mixture which included a surfactant. Treated plants and controls were maintained in a greenhouse for 13 to 15 days, after which time all species were compared to controls and visually evaluated. Plant response ratings, summarized in Table B, are based on a scale of 0 to 100 where 0 is no effect and 100 is complete control. A dash (-) response means no test result.

[8] = test system: green foxtail (Setaria viridis); test: Test B preemergence, green foxtail; settings: scale 0 to 100
Source text: as §2

[9] = test system: wild oat (Avena fatua); test: Test B preemergence, wild oat; settings: scale 0 to 100
Source text: as §2

[10] = test system: corn (Zea mays); test: Test B preemergence, corn; settings: scale 0 to 100
Source text: as §2

[11] = test system: giant foxtail (Setaria faberii); test: Test B preemergence, giant foxtail; settings: scale 0 to 100
Source text: as §2

[12] = test system: goosegrass (Eleusine indica); test: Test B preemergence, goosegrass; settings: scale 0 to 100
Source text: as §2

[13] = test system: morningglory (Ipomoea coccinea); test: Test B preemergence, morningglory; settings: scale 0 to 100
Source text: as §2

[14] = test system: yellow nutsedge (Cyperus esculentus); test: Test B preemergence, yellow nutsedge; settings: scale 0 to 100
Source text: as §2

[15] = test system: ragweed (common ragweed, Ambrosia elatior); test: Test B preemergence, ragweed; settings: scale 0 to 100
Source text: as §2

[16] = test system: soybean (Glycine max); test: Test B preemergence, soybean; settings: Preemergence, scale 0 to 100
Source text: as §2

[17] = test system: velvetleaf (Abutilon theophrasti); test: Test B preemergence, velvetleaf; settings: Preemergence, scale 0 to 100
Source text: as §2

[18] = test system: rice (Oryza sativa); test: Test B flooded paddy test, rice; settings: Flood, scale 0 to 100
Summary of the method: (§3)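 Rice, umbrella sedge, ducksalad and barnyardgrass at 2-leaf stage; pots flooded to 3 cm, compounds applied into paddy water, depth held throughout. Greenhouse 13 to 15 days, then visual rating vs untreated controls on 0–100 scale (0 no effect, 100 complete control); dash means no test result.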

[19] = test system: ducksalad (Heteranthera limosa); test: Test B flooded paddy test, ducksalad; settings: Flood, scale 0 to 100
Summary of the method: as §3

CC1(C)CC(S(=O)(=O)Cc2c(C(F)(F)F)nc3n(c2=O)CCO3)=NO1 [Compound 2, 6-[[(4,5-dihydro-5,5-dimethyl-3-isoxazolyl)sulfonyl]methyl]-2,3-dihydro-7-(trifluoromethyl)-5H-oxazolo[3,2-α]pyrimidin-5-one]
Plant response rating, Foxtail, Giant ([1]; 125 g ai/ha): 90
Plant response rating, Foxtail, Giant ([1]; 500 g ai/ha): 100
Plant response rating, Morningglory ([2]; 125 g ai/ha): 0
Plant response rating, Morningglory ([2]; 500 g ai/ha): 80
Plant response rating, Velvetleaf ([3]; 125 g ai/ha): 10
Plant response rating, Velvetleaf ([3]; 500 g ai/ha): 90
Plant response rating, Wheat ([4]; 125 g ai/ha): 10
Plant response rating, Wheat ([4]; 500 g ai/ha): 60
Plant response rating, Barnyardgrass ([5]; 125 g ai/ha): 70
Plant response rating, Barnyardgrass ([5]; 500 g ai/ha): 80
Plant response rating, Crabgrass, Large ([6]; 125 g ai/ha): 60
Plant response rating, Crabgrass, Large ([6]; 500 g ai/ha): 90
Plant response rating, Blackgrass ([7]; 8 g ai/ha): 0
Plant response rating, Blackgrass ([7]; 16 g ai/ha): 0
Plant response rating, Blackgrass ([7]; 31 g ai/ha): 0
Plant response rating, Blackgrass ([7]; 62 g ai/ha): 50
Plant response rating, Foxtail, Green ([8]; 8 g ai/ha): 0
Plant response rating, Foxtail, Green ([8]; 16 g ai/ha): 10
Plant response rating, Foxtail, Green ([8]; 31 g ai/ha): 55
Plant response rating, Foxtail, Green ([8]; 62 g ai/ha): 85
Plant response rating, Oat, Wild ([9]; 8 g ai/ha): 0
Plant response rating, Oat, Wild ([9]; 16 g ai/ha): 0
Plant response rating, Oat, Wild ([9]; 31 g ai/ha): 0
Plant response rating, Oat, Wild ([9]; 62 g ai/ha): 25
Plant response rating, Corn ([10]; 8 g ai/ha): 0
Plant response rating, Corn ([10]; 16 g ai/ha): 0
Plant response rating, Corn ([10]; 31 g ai/ha): 0
Plant response rating, Corn ([10]; 62 g ai/ha): 20
Plant response rating, Foxtail, Giant ([11]; 8 g ai/ha): 0
Plant response rating, Foxtail, Giant ([11]; 16 g ai/ha): 50
Plant response rating, Foxtail, Giant ([11]; 31 g ai/ha): 70
Plant response rating, Foxtail, Giant ([11]; 62 g ai/ha): 98
Plant response rating, Goosegrass ([12]; 8 g ai/ha): 0
Plant response rating, Goosegrass ([12]; 16 g ai/ha): 65
Plant response rating, Goosegrass ([12]; 31 g ai/ha): 75
Plant response rating, Goosegrass ([12]; 62 g ai/ha): 80
Plant response rating, Morningglory ([13]; 8 g ai/ha): 0
Plant response rating, Morningglory ([13]; 16 g ai/ha): 0
Plant response rating, Morningglory ([13]; 31 g ai/ha): 0
Plant response rating, Morningglory ([13]; 62 g ai/ha): 0
Plant response rating, Nutsedge, Yellow ([14]; 8 g ai/ha): 0
Plant response rating, Nutsedge, Yellow ([14]; 16 g ai/ha): 0
Plant response rating, Nutsedge, Yellow ([14]; 31 g ai/ha): 0
Plant response rating, Nutsedge, Yellow ([14]; 62 g ai/ha): 0
Plant response rating, Ragweed ([15]; 31 g ai/ha): 0
Plant response rating, Ragweed ([15]; 62 g ai/ha): 20
Plant response rating, Soybean ([16]; 31 g ai/ha): 0
Plant response rating, Soybean ([16]; 62 g ai/ha): 0
Plant response rating, Velvetleaf ([17]; 16 g ai/ha): 0
Plant response rating, Velvetleaf ([17]; 31 g ai/ha): 0
Plant response rating, Velvetleaf ([17]; 62 g ai/ha): 0
Plant response rating, Rice ([18]; 62 g ai/ha): 0
Plant response rating, Rice ([18]; 250 g ai/ha): 0
Plant response rating, Ducksalad ([19]; 62 g ai/ha): 0
Plant response rating, Ducksalad ([19]; 250 g ai/ha): 0

CC1(C)CC(S(=O)(=O)Cc2c(C(F)(F)F)nc3n(c2=O)CCS3)=NO1 [Compound 6]
Plant response rating, Foxtail, Giant ([1]; 125 g ai/ha): 80
Plant response rating, Foxtail, Giant ([1]; 500 g ai/ha): 100
Plant response rating, Morningglory ([2]; 125 g ai/ha): 90
Plant response rating, Morningglory ([2]; 500 g ai/ha): 100
Plant response rating, Velvetleaf ([3]; 125 g ai/ha): 0
Plant response rating, Velvetleaf ([3]; 500 g ai/ha): 80
Plant response rating, Wheat ([4]; 125 g ai/ha): 0
Plant response rating, Wheat ([4]; 500 g ai/ha): 0
Plant response rating, Barnyardgrass ([5]; 125 g ai/ha): 70
Plant response rating, Barnyardgrass ([5]; 500 g ai/ha): 80
Plant response rating, Crabgrass, Large ([6]; 125 g ai/ha): 80
Plant response rating, Crabgrass, Large ([6]; 500 g ai/ha): 90
Plant response rating, Blackgrass ([7]; 16 g ai/ha): 50
Plant response rating, Blackgrass ([7]; 31 g ai/ha): 80
Plant response rating, Blackgrass ([7]; 62 g ai/ha): 95
Plant response rating, Blackgrass ([7]; 125 g ai/ha): 95
Plant response rating, Foxtail, Green ([8]; 16 g ai/ha): 50
Plant response rating, Foxtail, Green ([8]; 31 g ai/ha): 50
Plant response rating, Foxtail, Green ([8]; 62 g ai/ha): 50
Plant response rating, Foxtail, Green ([8]; 125 g ai/ha): 100
Plant response rating, Oat, Wild ([9]; 16 g ai/ha): 30
Plant response rating, Oat, Wild ([9]; 31 g ai/ha): 45
Plant response rating, Oat, Wild ([9]; 62 g ai/ha): 60
Plant response rating, Oat, Wild ([9]; 125 g ai/ha): 60
Plant response rating, Corn ([10]; 16 g ai/ha): 0
Plant response rating, Corn ([10]; 31 g ai/ha): 0
Plant response rating, Corn ([10]; 62 g ai/ha): 0
Plant response rating, Corn ([10]; 125 g ai/ha): 0
Plant response rating, Foxtail, Giant ([11]; 16 g ai/ha): 0
Plant response rating, Foxtail, Giant ([11]; 31 g ai/ha): 95
Plant response rating, Foxtail, Giant ([11]; 62 g ai/ha): 100
Plant response rating, Foxtail, Giant ([11]; 125 g ai/ha): 100
Plant response rating, Goosegrass ([12]; 16 g ai/ha): 100
Plant response rating, Goosegrass ([12]; 31 g ai/ha): 100
Plant response rating, Goosegrass ([12]; 62 g ai/ha): 100
Plant response rating, Goosegrass ([12]; 125 g ai/ha): 100
Plant response rating, Morningglory ([13]; 16 g ai/ha): 0
Plant response rating, Morningglory ([13]; 31 g ai/ha): 0
Plant response rating, Morningglory ([13]; 62 g ai/ha): 0
Plant response rating, Morningglory ([13]; 125 g ai/ha): 0
Plant response rating, Nutsedge, Yellow ([14]; 16 g ai/ha): 0
Plant response rating, Nutsedge, Yellow ([14]; 31 g ai/ha): 0
Plant response rating, Nutsedge, Yellow ([14]; 62 g ai/ha): 0
Plant response rating, Nutsedge, Yellow ([14]; 125 g ai/ha): 45
Plant response rating, Ragweed ([15]; 16 g ai/ha): 0
Plant response rating, Ragweed ([15]; 31 g ai/ha): 0
Plant response rating, Ragweed ([15]; 62 g ai/ha): 25
Plant response rating, Ragweed ([15]; 125 g ai/ha): 35
Plant response rating, Soybean ([16]; 16 g ai/ha): 0
Plant response rating, Soybean ([16]; 31 g ai/ha): 0
Plant response rating, Soybean ([16]; 62 g ai/ha): 0
Plant response rating, Soybean ([16]; 125 g ai/ha): 0
Plant response rating, Velvetleaf ([17]; 16 g ai/ha): 0
Plant response rating, Velvetleaf ([17]; 31 g ai/ha): 0
Plant response rating, Velvetleaf ([17]; 62 g ai/ha): 0
Plant response rating, Velvetleaf ([17]; 125 g ai/ha): 0
Plant response rating, Rice ([18]; 62 g ai/ha): 20
Plant response rating, Rice ([18]; 250 g ai/ha): 20
Plant response rating, Ducksalad ([19]; 62 g ai/ha): 40
Plant response rating, Ducksalad ([19]; 250 g ai/ha): 65
